Patent US11098055B2, “Ester ACC inhibitors and uses thereof” (Gilead Apollo, LLC, priority 2015, dated 2021)
In brackets after ≈: the same amount, converted by molar mass. Read-outs that look alike come from different tables or passages of the source.

How the values were obtained:
hACC2 = hACC2 (Homo sapiens, UniProt O00763); test: In vitro ACC2 inhibition assay (ADP-Glo), human ACC2; assay type: biochemical
Protocol: An exemplary procedure for the in vitro ACC inhibition assay, which can be used to determine the inhibitory action of compounds of the invention toward either human (hACC2) or fungal (fACC2) ACC2, follows. The ADP-Glo™ Kinase Assay kit from Promega was used. The ADP-Glo™ Kinase Assay is a luminescent ADP detection assay to measure enzymatic activity by quantifying the amount of ADP produced during an enzyme reaction. The assay is performed in two steps; first, after the enzyme reaction, an equal volume of ADP-Glo™ Reagent is added to terminate the reaction and deplete the remaining ATP. Second, the Kinase Detection Reagent is added to simultaneously convert ADP to ATP and allow the newly synthesized ATP to be measured using a luciferase/luciferin reaction. Luminescence can be correlated to ADP concentrations by using an ATP-to-ADP conversion curve. The detailed procedure is as follows. 50 μL of the compound being tested (600 μM in DMSO) was added to a 384-well dilution plate. The compound was diluted 1:3 in succession in DMSO for each row for 11 wells. 0.5 μL ACC2 working solution was added to 384-well white Optiplate assay plate. 0.5 μL diluted compound solution in each column from step 2 was added to assay plate, each row containing 2 replicates. For the last 2 rows, 0.5 μL negative control (DMSO) was added in one row and 0.5 μL positive control (compound I-97) in the other. The plates were incubated at room temperature for 15 minutes. 5 μL substrate working solution was added to each well to initiate reaction. Final ACC2 reaction concentrations consist of: 5 nM ACC2, 20 μM ATP, 20 μM acetyl-CoA, 12 mM NaHCO3, 0.01% Brij35, 2 mM DTT, 5% DMSO, test compound concentrations: 30 μM, 10 μM, 3.33 μM, 1.11 μM, 0.37 μM, 0.123 μM, 0.0411 μM, 0.0137 μM, 0.00457 μM, 0.00152 μM, and 0.00051 μM. Plates were incubated at room temperature for 60 minutes. 10 μL ADP glo reagent was added. Plates were incubated at room temperature for 40 minutes. 20 μL kinase detection reagent was added. Plates were incubated at room temperature for 40 minutes, and then read on a Perkin Elmer EnVision 2104 plate reader for luminescence as Relative Light Units (RLU).
Data for each concentration, as well as the positive and negative controls, were averaged, and the standard deviation calculated. Percent inhibition was calculated by the formula: 100×(average negative control−compound)/(average negative control−average positive control). The IC50 for each compound was calculated by fitting the data with a non-linear regression equation: Y=Bottom+(Top−Bottom)/(1+10^((Log IC50−X)*HillSlope)), where X is the log of compound concentration and Y is percent inhibition.

[1] = test system: Collectotrichum graminicola (Cg); test: Growth inhibition assay of fungal pathogens; assay type: cell-based; conditions: 48 h, read-out: Concentration at 90% Inhibition Cg
Method in brief: (§1)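 Spores, or mycelial plugs for Rhizoctonia, in 17% V8 medium (¼ PDB for plugs) were exposed to compound at final 50, 10 and 2 ppm or 2, 0.4 and 0.08 ppm, with 2% DMSO. Growth was read by OD600 with blank subtraction plus visual rating; percent inhibition at 48 h is relative to 2% DMSO control.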

Diplodia maydis (Dm) = test: Growth inhibition assay of fungal pathogens; assay type: cell-based; conditions: Stenocarpella maydis, 48 h, read-out: Concentration at 90% Inhibition Dm
Method in brief: as §1

[2] = test system: Fusarium moniliforme (Fm); test: Growth inhibition assay of fungal pathogens; assay type: cell-based; conditions: Fusarium verticillioides, 48 h, read-out: Concentration at 90% Inhibition Fm
Method in brief: as §1

[3] = test system: Fusarium virguliforme (Fv); test: Growth inhibition assay of fungal pathogens; assay type: cell-based; conditions: 48 h, read-out: Concentration at 90% Inhibition Fv
Method in brief: as §1

[4] = test system: Phytophthora capsici (Pc); test: Growth inhibition assay of fungal pathogens; assay type: cell-based; conditions: 48 h, read-out: Concentration at 90% Inhibition Pc
Method in brief: as §1

Rhizoctonia solani (Rs) = test: Growth inhibition assay of fungal pathogens; assay type: cell-based; conditions: 48 h, read-out: Concentration at 90% Inhibition Rs
Method in brief: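 Percent growth inhibition is scored at 48 h, by OD600 (blank-subtracted) and visual rating against the 2% DMSO control. Compounds were tested at final 50, 10, 2 ppm or 2, 0.4, 0.08 ppm on pathogen spores diluted in 17% V8 medium; mycelial plugs in ¼ PDB were used for Rhizoctonia.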

Septoria tritici (St) = test: Growth inhibition assay of fungal pathogens; assay type: cell-based; conditions: Zymoseptoria tritici, 48 h, read-out: Concentration at 90% Inhibition St
Method in brief: as §1

hACC2, sequence (O00763 whole entry): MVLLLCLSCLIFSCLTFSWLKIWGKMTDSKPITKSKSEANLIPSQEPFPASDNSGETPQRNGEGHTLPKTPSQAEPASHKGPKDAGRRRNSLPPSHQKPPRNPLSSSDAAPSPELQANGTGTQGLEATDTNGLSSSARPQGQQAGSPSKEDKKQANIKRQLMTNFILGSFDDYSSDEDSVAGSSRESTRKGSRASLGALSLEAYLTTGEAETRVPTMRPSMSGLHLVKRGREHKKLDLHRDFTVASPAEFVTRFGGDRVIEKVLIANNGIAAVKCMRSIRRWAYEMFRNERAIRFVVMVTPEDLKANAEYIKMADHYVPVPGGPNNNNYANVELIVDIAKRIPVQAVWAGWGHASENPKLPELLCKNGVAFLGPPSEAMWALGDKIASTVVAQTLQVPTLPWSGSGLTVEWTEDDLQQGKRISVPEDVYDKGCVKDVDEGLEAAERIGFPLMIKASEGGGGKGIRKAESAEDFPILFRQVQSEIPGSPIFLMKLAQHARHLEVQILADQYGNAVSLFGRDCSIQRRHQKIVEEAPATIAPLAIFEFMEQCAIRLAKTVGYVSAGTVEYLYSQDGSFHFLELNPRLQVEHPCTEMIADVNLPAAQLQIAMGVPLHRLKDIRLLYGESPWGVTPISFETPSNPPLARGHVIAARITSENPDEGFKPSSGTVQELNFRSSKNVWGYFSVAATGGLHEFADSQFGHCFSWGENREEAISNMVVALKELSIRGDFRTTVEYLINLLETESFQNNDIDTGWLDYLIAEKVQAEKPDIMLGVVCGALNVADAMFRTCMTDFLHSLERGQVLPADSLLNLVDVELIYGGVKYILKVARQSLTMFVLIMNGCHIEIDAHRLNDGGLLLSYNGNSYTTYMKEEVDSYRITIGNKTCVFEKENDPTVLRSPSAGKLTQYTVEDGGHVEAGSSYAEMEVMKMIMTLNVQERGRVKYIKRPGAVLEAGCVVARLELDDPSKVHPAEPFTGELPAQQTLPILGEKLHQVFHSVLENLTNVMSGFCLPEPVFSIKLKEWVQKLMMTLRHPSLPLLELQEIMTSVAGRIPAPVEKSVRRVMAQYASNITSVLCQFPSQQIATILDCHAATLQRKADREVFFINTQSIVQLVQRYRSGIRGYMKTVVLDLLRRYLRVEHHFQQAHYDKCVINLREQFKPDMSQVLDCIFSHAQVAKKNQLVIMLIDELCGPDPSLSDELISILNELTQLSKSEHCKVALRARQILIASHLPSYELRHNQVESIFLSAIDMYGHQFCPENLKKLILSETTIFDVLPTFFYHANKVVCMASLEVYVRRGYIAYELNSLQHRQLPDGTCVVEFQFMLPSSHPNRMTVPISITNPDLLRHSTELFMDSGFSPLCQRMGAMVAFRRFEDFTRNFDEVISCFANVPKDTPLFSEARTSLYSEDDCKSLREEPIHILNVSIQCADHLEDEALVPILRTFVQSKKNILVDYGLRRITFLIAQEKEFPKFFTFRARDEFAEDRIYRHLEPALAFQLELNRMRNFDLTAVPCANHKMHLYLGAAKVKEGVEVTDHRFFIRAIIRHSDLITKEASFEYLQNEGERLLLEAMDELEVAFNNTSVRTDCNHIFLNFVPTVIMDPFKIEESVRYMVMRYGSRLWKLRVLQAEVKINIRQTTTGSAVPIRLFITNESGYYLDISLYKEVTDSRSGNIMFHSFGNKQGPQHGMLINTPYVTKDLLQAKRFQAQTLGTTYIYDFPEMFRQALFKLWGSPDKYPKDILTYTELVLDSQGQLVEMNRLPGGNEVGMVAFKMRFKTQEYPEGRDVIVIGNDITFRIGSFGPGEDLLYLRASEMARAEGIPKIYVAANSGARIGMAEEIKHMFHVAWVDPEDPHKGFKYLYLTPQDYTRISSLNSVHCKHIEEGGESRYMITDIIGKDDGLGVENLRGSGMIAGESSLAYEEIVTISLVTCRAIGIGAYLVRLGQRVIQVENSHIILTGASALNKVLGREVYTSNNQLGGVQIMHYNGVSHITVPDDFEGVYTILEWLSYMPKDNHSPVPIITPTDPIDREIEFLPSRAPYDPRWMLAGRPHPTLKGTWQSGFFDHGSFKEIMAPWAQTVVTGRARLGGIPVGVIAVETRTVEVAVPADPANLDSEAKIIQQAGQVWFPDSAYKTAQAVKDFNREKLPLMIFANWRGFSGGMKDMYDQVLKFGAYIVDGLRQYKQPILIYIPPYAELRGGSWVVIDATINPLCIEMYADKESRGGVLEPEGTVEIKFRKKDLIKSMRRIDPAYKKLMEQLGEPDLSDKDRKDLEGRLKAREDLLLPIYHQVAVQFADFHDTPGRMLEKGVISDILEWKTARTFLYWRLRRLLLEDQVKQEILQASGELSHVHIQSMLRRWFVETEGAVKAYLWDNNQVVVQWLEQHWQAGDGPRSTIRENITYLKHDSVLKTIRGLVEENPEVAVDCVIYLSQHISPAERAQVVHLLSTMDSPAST

| SMILES | IC50 (hACC2; Table 2a) [nM] | IC90 ([1]; Table 4a) [µg/mL] | IC90 ([1]; Table 4b) [µg/mL] | IC90 (Diplodia maydis (Dm); Table 4a) [µg/mL] | IC90 (Diplodia maydis (Dm); Table 4b) [µg/mL] | IC90 ([2]; Table 4a) [µg/mL] | IC90 ([2]; Table 4b) [µg/mL] | IC90 ([3]; Table 4a) [µg/mL] | IC90 ([3]; Table 4b) [µg/mL] | IC90 ([4]; Table 4a) [µg/mL] | IC90 ([4]; Table 4b) [µg/mL] | IC90 (Rhizoctonia solani (Rs); Table 4a) [µg/mL] | IC90 (Rhizoctonia solani (Rs); Table 4b) [µg/mL] | IC90 (Septoria tritici (St); Table 4a) [µg/mL] | IC90 (Septoria tritici (St); Table 4b) [µg/mL] | IC50 (hACC2; Table 2b (additional results)) [nM] |
| --- | --- | --- | --- | --- | --- | --- | --- | --- | --- | --- | --- | --- | --- | --- | --- | --- |
| CCOC(=O)c1sc2c(c1C)c(=O)n(C(C)(C)C(=O)N1CCCC1)c(=O)n2C[C@H](OCCC#N)c1cc(F)ccc1OC [Compound I-16, (R)-ethyl 1-(2-(2-cyanoethoxy)-2-(5-fluoro-2-methoxy-phenyl)ethyl)-5-methyl-3-(2-methyl-1-oxo-1-(pyrrolidin-1-yl)propan-2-yl)-2,4-dioxo-1,2,3,4-tetrahydrothieno[2,3-d]pyrimidine-6-carboxylate] | 3 to 10 | 2 (≈ 3.25 µM) | 2 (≈ 3.25 µM) | 2 (≈ 3.25 µM) | 2 (≈ 3.25 µM) | 0.08 (≈ 0.13 µM) | 0.08 (≈ 0.13 µM) | 2 (≈ 3.25 µM) | 2 (≈ 3.25 µM) | ≥ 50 | ≥ 50 | 0.4 (≈ 0.651 µM) | 0.4 (≈ 0.651 µM) | ≥ 50 | ≥ 50 |  |
| CCOC(=O)c1sc2c(c1C)c(=O)n(C(C)(C)C(=O)N1CCCCC1)c(=O)n2C[C@H](OC1CCOCC1)c1ccccc1OC [Compound I-2, ethyl (R)-1-(2-(2-methoxyphenyl)-2-((tetrahydro-2H-pyran-4-yl)oxy)ethyl)-5-methyl-3-(2-methyl-1-oxo-1-(piperidin-1-yl)propan-2-yl)-2,4-dioxo-1,2,3,4-tetrahydrothieno[2,3-d]pyrimidine-6-carboxylate] | 10 to 40 | 0.4 (≈ 0.623 µM) | 0.4 (≈ 0.623 µM) | 2 (≈ 3.12 µM) | 2 (≈ 3.12 µM) | 0.4 (≈ 0.623 µM) | 0.4 (≈ 0.623 µM) | 0.4 (≈ 0.623 µM) | 0.4 (≈ 0.623 µM) | ≥ 50 | ≥ 50 | 2 (≈ 3.12 µM) | 0.4 (≈ 0.623 µM) | ≥ 50 | 10 (≈ 15.6 µM) | 10 to 40 |
| CCNC(=O)[C@@H](C)n1c(=O)c2c(C)c(C(=O)OCC)sc2n(C[C@H](OCCC#N)c2cc(F)ccc2OC)c1=O [Compound I-41, ethyl 1-((R)-2-(2-cyanoethoxy)-2-(5-fluoro-2-methoxy-phenyl)ethyl)-3-((R)-1-(ethylamino)-1-oxopropan-2-yl)-5-methyl-2,4-dioxo-1,2,3,4-tetrahydrothieno[2,3-d]pyrimidine-6-carboxylate] |  |  | 10 (≈ 17.4 µM) |  | ≥ 50 |  | 2 (≈ 3.48 µM) |  | ≥ 50 |  | ≥ 50 |  | ≥ 50 |  | ≥ 50 | 10 to 40 |
| CCOC(=O)c1sc2c(c1C)c(=O)n(C(C)(C)C(=O)NC(C)C)c(=O)n2C[C@H](OCC(C)(C)C#N)c1ccccc1OC [Compound I-38, ethyl (R)-1-(2-(2-cyano-2-methylpropoxy)-2-(2-methoxyphenyl)ethyl)-3-(1-(isopropylamino)-2-methyl-1-oxopropan-2-yl)-5-methyl-2,4-dioxo-1,2,3,4-tetrahydrothieno[2,3-d]pyrimidine-6-carboxylate] |  |  | 2 (≈ 3.26 µM) |  | 2 (≈ 3.26 µM) |  | 0.08 (≈ 0.131 µM) |  | 2 (≈ 3.26 µM) |  | ≥ 50 |  | 2 (≈ 3.26 µM) |  | ≥ 50 | 10 to 40 |
| CCOC(=O)c1sc2c(c1C)c(=O)n([C@@H](C)C(=O)NC(C)C)c(=O)n2C[C@H](O)c1cc(F)ccc1OC [Compound I-44, ethyl 1-((R)-2-(5-fluoro-2-methoxyphenyl)-2-hydroxyethyl)-3-((S)-1-(isopropylamino)-1-oxopropan-2-yl)-5-methyl-2,4-dioxo-1,2,3,4-tetrahydrothieno[2,3-d]pyrimidine-6-carboxylate] |  |  | ≥ 50 |  | ≥ 50 |  | ≥ 50 |  | 10 (≈ 18.7 µM) |  | ≥ 50 |  | ≥ 50 |  | ≥ 50 | ≥ 40 |
| CCOC(=O)c1sc2c(c1C)c(=O)n(C(C)(C)C(=O)NC(C)C)c(=O)n2C[C@H](OC1CCOCC1)c1ccccc1OC [Compound I-8, (R)-ethyl 3-(1-(isopropylamino)-2-methyl-1-oxopropan-2-yl)-1-(2-(2-methoxyphenyl)-2-((tetrahydro-2H-pyran-4-yl)oxy)ethyl)-5-methyl-2,4-dioxo-1,2,3,4-tetrahydrothieno[2,3-d]pyrimidine-6-carboxylate] | 10 to 40 | 2 (≈ 3.25 µM) | 2 (≈ 3.25 µM) | 2 (≈ 3.25 µM) | 2 (≈ 3.25 µM) | 0.08 (≈ 0.13 µM) | 0.08 (≈ 0.13 µM) | 2 (≈ 3.25 µM) | 2 (≈ 3.25 µM) | ≥ 50 | ≥ 50 | ≥ 50 | 10 (≈ 16.2 µM) | ≥ 50 | ≥ 50 | 10 to 40 |
| CCOC(=O)c1sc2c(c1C)c(=O)n(C(C)(C)C(=O)NC(C)C)c(=O)n2C[C@H](OCC#N)c1cc(F)ccc1OC [Compound I-33, ethyl (R)-1-(2-(cyanomethoxy)-2-(5-fluoro-2-methoxy-phenyl)ethyl)-3-(1-(isopropylamino)-2-methyl-1-oxopropan-2-yl)-5-methyl-2,4-dioxo-1,2,3,4-tetrahydrothieno[2,3-d]pyrimidine-6-carboxylate] |  |  | 2 (≈ 3.4 µM) |  | 2 (≈ 3.4 µM) |  | 0.08 (≈ 0.136 µM) |  | 0.4 (≈ 0.68 µM) |  | ≥ 50 |  | 0.4 (≈ 0.68 µM) |  | 10 (≈ 17 µM) | 3 to 10 |
| CCOC(=O)c1sc2c(c1C)c(=O)n(C(C)(C)C(=O)NC(C)C)c(=O)n2C[C@H](OCCC#N)c1ccccc1OC [Compound I-31, ethyl (R)-1-(2-(2-cyanoethoxy)-2-(2-methoxyphenyl)ethyl)-3-(1-(isopropylamino)-2-methyl-1-oxopropan-2-yl)-5-methyl-2,4-dioxo-1,2,3,4-tetrahydrothieno[2,3-d]pyrimidine-6-carboxylate] |  |  | 0.4 (≈ 0.684 µM) |  | 0.4 (≈ 0.684 µM) |  | 0.08 (≈ 0.137 µM) |  | 0.4 (≈ 0.684 µM) |  | 2 (≈ 3.42 µM) |  | 2 (≈ 3.42 µM) |  | 10 (≈ 17.1 µM) | 3 to 10 |
